Experiments:
Assay type in all cases: functional
Pseudomonas aeruginosa [1] = assay: Antimicrobial activity against beta-lactamase-producing Pseudomonas aeruginosa clinical isolate assessed as susceptible isolates by agar dilution method
Pseudomonas aeruginosa [2] = assay: Antimicrobial activity against ESBL- and MBL-producing Pseudomonas aeruginosa isolated from patients with bloodstream infection assessed as resistant isolates by agar dilution method
Pseudomonas aeruginosa [3] = assay: Antimicrobial activity against Pseudomonas aeruginosa clinical isolate overexpressing AmpC gene assessed as resistant isolates by agar dilution method
Pseudomonas aeruginosa [4] = assay: Antimicrobial activity against ESBL- and MBL-producing and ceftazidime-resistant Pseudomonas aeruginosa isolated from patients with bloodstream infection assessed as resistant isolates by agar dilution method
Pseudomonas aeruginosa [5] = assay: Antimicrobial activity against beta-lactamase-producing Pseudomonas aeruginosa clinical isolate assessed as susceptible isolate by agar dilution method in presence of beta-lactamase inhibitor Tazobactam
Pseudomonas aeruginosa [6] = assay: Antimicrobial activity against beta-lactamase-producing Pseudomonas aeruginosa clinical isolate by agar dilution method

Molecule	Activity (Pseudomonas aeruginosa [1])	Activity (Pseudomonas aeruginosa [4])	other results
NCC[C@H](O)C(=O)N[C@@H]1C[C@H](N)[C@@H](O[C@H]2O[C@H](CN)[C@@H](O)[C@H](O)[C@H]2O)[C@H](O)[C@H]1O[C@H]1O[C@H](CO)[C@@H](O)[C@H](N)[C@H]1O [AMIKACIN]	18.6%		
CC(C)(O/N=C(\C(=O)N[C@@H]1C(=O)N2C(C(=O)[O-])=C(C[n+]3ccccc3)CS[C@H]12)c1csc(N)n1)C(=O)O [CEFTAZIDIME]			Activity (Pseudomonas aeruginosa [2]): 28%; Activity (Pseudomonas aeruginosa [3]): 9.3%
C[C@@H](O)[C@H]1C(=O)N2C(C(=O)O)=C(SCCNC=N)C[C@H]12 [IMIPENEM ANHYDROUS]	18.6%	82%	
C[C@@H](O)[C@H]1C(=O)N2C(C(=O)O)=C(S[C@@H]3CN[C@H](C(=O)N(C)C)C3)[C@H](C)[C@H]12 [MEROPENEM]		95%	
CCN1CCN(C(=O)N[C@@H](C(=O)N[C@@H]2C(=O)N3[C@@H]2SC(C)(C)[C@@H]3C(=O)O)c2ccccc2)C(=O)C1=O [PIPERACILLIN]	34.8%		Activity (Pseudomonas aeruginosa [5]): 39.5%; MIC (Pseudomonas aeruginosa [6]): ≤ 16 µg/mL
COLISTIN	100%		

Reference: ChEMBL document CHEMBL1649211, “Diversity of beta-lactamases produced by ceftazidime-resistant Pseudomonas aeruginosa isolates causing bloodstream infections in Brazil” (2009)
